Data published in the supplement of paper PMC5908809.

Columns and labels:
DERL-7 (IL-2 2.5 ng/mL) [1] = assay: percent inhibition of viability; higher = more inhibition; settings: 72 h
KHYG-1 (IL-2 2.5 ng/mL) [2] = assay: as above; settings: 72 h
[3] = system: normal primary NK cells, pool 2 (3 donors) (IL-2 2.5 ng/mL); assay: as above; settings: 72 h
SNK-6 (IL-2 2.5 ng/mL) [4] = assay: as above; settings: 72 h
NK-YS (IL-2 2.5 ng/mL) [5] = assay: as above; settings: 72 h
IMC-1 (IL-2 20 ng/mL) [6] = assay: as above; settings: 72 h
[7] = system: normal primary NK cells, pool 1 (3 donors), resting (IL-2 0 ng/mL); assay: as above; settings: 72 h
YT (IL-2 2.5 ng/mL) [8] = assay: as above; settings: 72 h
[9] = system: normal primary NK cells, pool 1 (3 donors) (IL-2 2.5 ng/mL); assay: as above; settings: 72 h
KAI3 (IL-2 2.5 ng/mL) [10] = assay: as above; settings: 72 h
[11] = system: normal primary NK cells, pool 3 (3 donors) (IL-2 2.5 ng/mL); assay: as above; settings: 72 h
NK-92 (IL-2 2.5 ng/mL) [12] = assay: as above; settings: 72 h
NKL (IL-2 2.5 ng/mL) [13] = assay: as above; settings: 72 h
[14] = system: normal NK cells expanded with K562-aAPC; assay: drug sensitivity score (DSS) (DSS units); higher = more sensitive; extreme values may be limits of the assay; settings: 72 h; IL-2 2.5 ng/mL
Method: (§1)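 Drug sensitivity and resistance testing on K562-aAPC-expanded normal NK cells: 5 concentrations (10-fold steps over a 10,000-fold range), 72 h at 37 °C, viability by CellTiter-Glo normalised to DMSO and benzethonium chloride controls; DSS from the fitted curve.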

DERL-7 (IL-2 2.5 ng/mL) [15] = assay: as above; settings: 72 h
KHYG-1 (IL-2 2.5 ng/mL) [16] = assay: as above; settings: 72 h
[17] = system: normal primary NK cells, pool 2 (3 donors) (IL-2 2.5 ng/mL); assay: as above; settings: 72 h
SNK-6 (IL-2 2.5 ng/mL) [18] = assay: as above; settings: 72 h
NK-YS (IL-2 2.5 ng/mL) [19] = assay: as above; settings: 72 h
IMC-1 (IL-2 20 ng/mL) [20] = assay: as above; settings: 72 h
[21] = system: normal primary NK cells, pool 1 (3 donors), resting (IL-2 0 ng/mL); assay: as above; settings: 72 h
YT (IL-2 2.5 ng/mL) [22] = assay: as above; settings: 72 h
[23] = system: normal primary NK cells, pool 1 (3 donors) (IL-2 2.5 ng/mL); assay: as above; settings: 72 h
KAI3 (IL-2 2.5 ng/mL) [24] = assay: as above; settings: 72 h
[25] = system: normal primary NK cells, pool 3 (3 donors) (IL-2 2.5 ng/mL); assay: as above; settings: 72 h
NK-92 (IL-2 2.5 ng/mL) [26] = assay: as above; settings: 72 h
NKL (IL-2 2.5 ng/mL) [27] = assay: as above; settings: 72 h
[28] = system: normal NK cells expanded with K562-aAPC; assay: percent inhibition of viability; higher = more inhibition; settings: 72 h, IL-2 2.5 ng/mL
Method: as §1

CC(C)Oc1ccc(C(=O)N[C@H](CNC(=O)CN(C)C)Cc2ccc(-c3cn4cccc([C@H](C)O)c4n3)cc2)cc1Cl (max concentration tested 10000 nM)
percent inhibition of viability [%]
Settings | 1 nM | 10 nM | 100 nM | 1000 nM | 10000 nM
DERL-7 (IL-2 2.5 ng/mL) [1] | 3.17 | 0.65 | 70.1 | 99.2 | 98.2
IMC-1 (IL-2 20 ng/mL) [6] | -5.65 | 4.24 | 8.53 | 95.8 | 99.2
KAI3 (IL-2 2.5 ng/mL) [10] | -6.47 | -5.43 | 37.5 | 53.3 | 103
KHYG-1 (IL-2 2.5 ng/mL) [2] | -0.23 | 3.89 | 37.2 | 105 | 106
NK-92 (IL-2 2.5 ng/mL) [12] | 0.16 | 3.89 | 18.2 | 96.7 | 106
NK-YS (IL-2 2.5 ng/mL) [5] | -1.16 | 1.87 | 67.4 | 78.2 | 89.7
NKL (IL-2 2.5 ng/mL) [13] | 2.24 | 7.12 | 66.4 | 93.5 | 91.1
SNK-6 (IL-2 2.5 ng/mL) [4] | 1.52 | 24 | 74.4 | 84.6 | 89.7
YT (IL-2 2.5 ng/mL) [8] | 1.62 | 7.48 | 76.3 | 101 | 104
[3] | -5.03 | 7.38 | 7.4 | 6.97 | 31
[7] | -16.4 | -27 | -21.3 | -33.1 | 54.9
[9] | -2.11 | -10.1 | 1.46 | -2.94 | 28.1
[11] | -8.24 | -2.71 | 16.4 | 4.47 | 33.7
[28] | 5.14 | 3.61 | 10.7 | 62 | 88.4

Settings | drug sensitivity score
DERL-7 (IL-2 2.5 ng/mL) [15] | 25.9
IMC-1 (IL-2 20 ng/mL) [20] | 18.9
KAI3 (IL-2 2.5 ng/mL) [24] | 15.1
KHYG-1 (IL-2 2.5 ng/mL) [16] | 23.1
NK-92 (IL-2 2.5 ng/mL) [26] | 20.2
NK-YS (IL-2 2.5 ng/mL) [19] | 24.4
NKL (IL-2 2.5 ng/mL) [27] | 25.3
SNK-6 (IL-2 2.5 ng/mL) [18] | 27.8
YT (IL-2 2.5 ng/mL) [22] | 27.8
[14] | 13.2
[17] | 2.26
[21] | 1.92
[23] | 0.98
[25] | 2.31
